These results are taken from patent US20220386609A1, “META-DIAMIDE INSECTICIDES” (FMC Corporation, priority 2019, published 2022).

By mortality is commonly meant the share of the test organisms that died. A word on the melting point: it is the temperature of the solid-liquid transition.

The test system of data set [1] is potato leafhopper (Empoasca fabae (Harris)). In words: Test D: control of potato leafhopper through contact and/or systemic means. It counts as in vivo. The settings on record: 144 h, Soleil bean plant, adults, 6 days; for mortality at 50 ppm: tested at 50 ppm; for mortality at 250 ppm: tested at 250 ppm. The protocol:
(§1) Test compounds were formulated using a solution containing 10% acetone, 90% water and 300 ppm Activator 90® non-ionic surfactant (Loveland Products, Loveland, Colo., USA). The formulated compounds were applied in 1 mL of liquid through an atomizer nozzle positioned 1.27 cm (0.5 inches) above the top of each test unit. Test compounds were sprayed at the rates indicated, and each test was replicated three times.
For evaluating control of potato leafhopper (Empoasca fabae (Harris)) through contact and/or systemic means, the test unit consisted of a small open container with a 5-6-day-old Soleil bean plant (primary leaves emerged) inside. White sand was added to the top of the soil, and one of the primary leaves was excised prior to application of the test compound.
Test compounds were formulated and sprayed at 250 and/or 50 ppm. After spraying of the formulated test compound, the test units were allowed to dry for 1 hour before they were post-infested with 5 potato leafhoppers (18-to-21-day-old adults). A black, screened cap was placed on the top of the test unit, and the test units were held for 6 days in a growth chamber at 20° C. and 70% relative humidity. Each test unit was then visually assessed for insect mortality.

Data set [2] deals with cotton melon aphid (Aphis gossypii (Glover)). Briefly: Test F: control of cotton melon aphid through contact and/or systemic means. It counts as in vivo. The settings on record: 144 h, tested at 250 ppm, okra plant, 6 days. As for the experimental part:
as §1
[…] This was pre-infested with 30-40 insects on a piece of leaf according to the cut-leaf method, and the soil of the test unit was covered with a layer of sand.
Test compounds were formulated and sprayed at 250 and/or 50 ppm. After spraying, the test units were maintained in a growth chamber for 6 days at 19° C. and 70% relative humidity. Each test unit was then visually assessed for insect mortality.

Structures are written as SMILES.

Consider `O=C(C[C@H](c1cccc(C(F)(F)F)c1)C(F)(F)F)Nc1ccc(Cl)c(C(=O)Nc2ccc(F)cc2F)c1` [Compound 103, (βR)—N-[4-chloro-3-[[(2,4-difluorophenyl)amino]carbonyl]phenyl]-β,3-bis(trisfluoromethyl)benzenepropanamide], for which the mortality at 50 ppm in data set [1] was ≥ 80%.

Consider `O=C(CC(c1cccc(C(F)(F)F)c1)C(F)(F)F)Nc1ccc(Cl)c(C(=O)Nc2ccc(F)cc2F)c1` (stereo not drawn) [Compound 5, N-[4-chloro-3-[[(2,4-difluorophenyl)amino]carbonyl]phenyl]-β,3-bis(trifluoromethyl)benzenepropanamide], for which, in data set [1], the mortality at 250 ppm is ≥ 80%.

As to `O=C(CC(c1ccc(F)c(Cl)c1)C(F)(F)F)Nc1ccc(Cl)c(C(=O)Nc2ccc(F)cc2F)c1` (stereo not drawn) [Compound 115, 3-chloro-N-[4-chloro-3-[[(2,4-difluorophenyl)amino]carbonyl]phenyl]-4-fluoro-β-(trifluoromethyl)benzenepropanamide], in data set [1], the mortality at 50 ppm is ≥ 80%.

As to `O=C(CC(c1ccc(Cl)c(Cl)c1)C(F)(F)F)Nc1ccc(Cl)c(C(=O)Nc2ccc(F)cc2)c1` (stereo not drawn) [Compound 1, 3,4-dichloro-N-[4-chloro-3-[[(4-fluorophenyl)amino]carbonyl]phenyl]-β-(trifluoro-methyl)benzenepropanamide], the mortality at 250 ppm in data set [1] is ≥ 80%.

`O=C(CC(c1cc(Cl)cc(Cl)c1)C(F)(F)F)Nc1ccc(Cl)c(C(=O)Nc2ccc(F)cc2F)c1` (stereo not drawn) [Compound 60, 3,5-dichloro-N-[4-chloro-3-[[(2,4-difluorophenyl)amino]carbonyl]phenyl]-β-(trifluoro-methyl)benzenepropanamide]: in data set [1], the mortality at 50 ppm was ≥ 80% and the mortality at 250 ppm is ≥ 80%.

`O=C(CC(c1ccc(Cl)c(Cl)c1)C(F)(F)F)Nc1ccc(Cl)c(C(=O)Nc2ccc(F)cc2F)c1` (stereo not drawn) [Compound 52, 3,4-dichloro-N-[4-chloro-3-[[(2,4-difluorophenyl)amino]carbonyl]phenyl]-β-(trifluoro-methyl)benzenepropanamide]: in data set [1], the mortality at 50 ppm is ≥ 80% and the mortality at 250 ppm is ≥ 80%. For the same molecule, the mortality at 250 ppm in data set [2] was ≥ 80%.

As to `O=C(CC(c1cccc(C(F)(F)F)c1)C(F)(F)F)Nc1ccc(Cl)c(C(=O)NCc2ccc(F)cc2F)c1` (stereo not drawn) [Compound 148, N-[4-chloro-3-[[(2,4-difluorophenyl)methylamino]carbonyl]phenyl]-β,3-bis(trifluoromethyl)benzenepropanamide], the melting point lay in the range of 96 to 99 °C.
